The values below come from patent US6911465B1, “Anti-inflammatory indole derivatives” (AstraZeneca AB, priority 1999, dated 2005).

The target in assay [1] is T1, MCP-1 receptor B (CCR2B) (Homo sapiens, UniProt P41597).
T1 construct: expressed in transfected cells; membrane fragments
T1 sequence (P41597 1-360 isoform P41597-2): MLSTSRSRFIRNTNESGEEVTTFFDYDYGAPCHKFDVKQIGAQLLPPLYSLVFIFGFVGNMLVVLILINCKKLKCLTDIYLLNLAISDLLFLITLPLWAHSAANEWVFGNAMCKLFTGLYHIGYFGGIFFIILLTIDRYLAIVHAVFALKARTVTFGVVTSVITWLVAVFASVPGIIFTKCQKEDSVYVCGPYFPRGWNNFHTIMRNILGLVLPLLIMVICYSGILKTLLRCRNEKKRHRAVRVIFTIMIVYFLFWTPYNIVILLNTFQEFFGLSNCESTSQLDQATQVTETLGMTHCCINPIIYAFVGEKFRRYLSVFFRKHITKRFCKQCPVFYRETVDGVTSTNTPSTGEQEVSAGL
The assay can be described thus: hMCP-1 receptor binding assay (125I-MCP-1, CHO-CCR2B cell membranes). The text has this: The MCP-1 receptor B (CCR2B) cDNA was cloned by PCR from THP-1 cell RNA using suitable oligonucleotide primers based on the published MCP-1 receptor sequences (Charo et al., 1994, Proc. Natl. Acad. Sci USA, 91, 2752). The resulting PCR products were cloned into vector PCR-II™ (In Vitrogen, San Diego, Calif.). Error free CCR2B cDNA was subcloned as a Hind III-Not I fragment into the eukaryotic expression vector pCDNA3 (In Vitrogen) to generate pCDNA3/CC-CKR2A and pCDNA3/CCR2B respectively.
Linearised pCDNA3/CCR2B DNA was transfected into CHO-K1 cells by calcium phosphate precipitation (Wigler et al., 1979, Cell, 16, 777). Transfected cells were selected by the addition of Geneticin Sulphate (G418, Gibco BRL) at 1 mg/mlo, 24 hours after the cells had been transfected. Preparation of RNA and Norther Blotting were carried out as described previously (Needham et al., 1995, Prot. Express. Purific., 6, 134). CHO-K1 clone 7 (CHO-CCR2B) was identified as the highest MCP-1 receptor B-expressor. […]
^125I MCP-1 was preapred using Bolton and Hunter conjugation (Bolton et al., 1973, Biochem. J., 133, 529; Amersham International plc]. Equilibrium binding assays were carried out using the method of Ernst et al., 1994, J. Immunol., 152, 3541. Briefly, varying amounts of ^125I-labeled MCP-1 were added to 7 μg of purified CHO-CCR2B cell membranes in 100 μl of Binding Buffer. After 1 hour incubation at room temperature the binding reaction mixtures wre filtered and washed 5 times through a plate washer (Brandel MLR-96T Cell Harvester) using ice cold Binding Buffer. Filter mats (Brandel GF/B) were pre-soaked for 60 minutes in 0.3% polyethyleneimine prior to use. Following filtration individual filters were separated into 3.5 ml tubes (Sarsted No. 55.484) and bound ^125I-labeled MCP-1 was determined (LKB 1277 Gammamaster). […] Non-specific binding was determined by the incinsion of a 200-fold molar excess of unlabelled MCP-1 in the reaction. […]

Assay [2] has as its system THP-1 cells. The assay can be described thus: MCP-1 mediated calcium flux in THP-1 cells. The assay is classed as cell-based, human. Particulars: stimulation of THP-1 cells, FURA-2, approximate; read-out: EC50 for rise in [Ca2+]i. Here is the method:
The human monocytic cell line THP-1 was grown in a synthetic cell culture medium RPMI 1640 supplemented with 10% foetal calf serum, 6 mM glutamine and Penicillin-Streptomycin (at 50 μg streptomycin/ml, Gibco BRL). THP-1 cells were washed in HBSS (lacking Ca^2+ and Mg^2+)+1 mg/ml BSA and resuspending in the same buffer at a density of 3×10^6 cells/ml. The cells were then loaded with […] FURA-2/AM for 30 min at 37° C., washed twice in HBSS, and resuspended in 1×10^6 cells/ml. THP-1 cell suspension (0.9 ml) was added to a 5 ml disposable curvette containing a magnetic stirrer bar and 2.1 ml of prewarmed (37° C.) HBSS containing 1 mg/ml BSA, 1 mM MgCl2 and 2 mM CaCl2. The cuvette was placed in a fluorescence spectrophootmeter (Perkin Elmer, Norwalk, Conn.) and preincubated for 4 min at 37° C. with stirring. Fluorescence was recorded over 70 sec and cells wre stimulated by addition of hMCP-1 to the curvette after 10 sec. [Ca^2+]i was measured by excitation at 340 nm and 380 nm alternately and subsequent measurement of the intensity of the fluorescence emission at 510 nm. […] Rmax is the maximal fluorescence ratio determined after additional of […] lonomycin, […] ratio determined by the subsequent addition of a Ca^2+ free solution containing 5 mM EGTA, and Sf2/Sb2 is the ratio of fluorescence values at 380 nm excitation determined at Rmin and Rmax, respectively. […]
In general terms: Calcium flux is commonly read through the fluorescence of an indicator in the cells.

Assay [3] has as its system THP-1 cells. The assay can be described thus: hMCP-1 mediated chemotaxis of THP-1 cells. The assay is classed as cell-based, human. Particulars: biphasic response. Here is the method: In vitro chemotaxis assays were performed using the human monocytic cell line THP-1. Cell migration through polycarbonate membranes was measured by enumerating those passing through either directly by Coulter counting or indirectly by use of a colourimetric viability assay measuring the cleavage of a tetrazolium salt by the microchondrial respiratory chain (Scudiero D. A. et al. 1988, Cancer Res., 48, 4827-4833).
Chemoattractants were introduced into a 96-well microtiter plate which forms the lower well of a chemotaxis chamber fitted with a PVP-free 5 μm poresize polycarbonate adhesive framed filter membrane (NeuroProbe MB series, Cabin John, MD 20818, USA) according to the manufacturer's instructions. […] The plate was incubated at 37° C. for 3 h and the absorbance of the soluble formazan product was read on a microtiter plate reader at 450 nm. The data was input into a spreadsheet, corrected for any random migration in the absence of chemoattractant and the average absorbance values, standard error of the mean, and significance tests were calculated. hMCP-1 induced concentration dependent cell migration with a characteristic biphasic response, maximal […].

Where two headings read alike, the source gives them in different places.

For the compound `O=C(CN1CCOCC1)Nc1cccc2c1cc(C(=O)O)n2Cc1ccc(Cl)c(Cl)c1` [Compound 2], the 50% inhibitory concentration (IC50) in assay [1] (competition with 100 pM labelled MCP-1, CHO-CCR2B membranes, 0.01-50 μM, read-out: IC50 in hMCP-1 receptor binding assay) came to 1700 nM.

Take “MCP-1: Human Monocyte Chemoattractant Protein-1, the chemokine ligand of the CCR2 receptor”: the EC50 in assay [2] is around 2 nM. The IC50 in assay [1] (cold competition, unlabelled MCP-1 vs 100 pM 125I-MCP-1, CHO-CCR2B membrane fragments, read-out: IC50 of MCP-1 binding to CCR2B) was 0.11 nM. In addition, the Kd in assay [1] (equilibrium binding, CHO-CCR2B membrane fragments) turned out to be 0.12 nM. Further, the “concentration of maximal cell migration” value in assay [3] is 0.5-1.0 nm.

As usually defined, the IC50 is the midpoint of a concentration-inhibition curve. The EC50 is the concentration at which the effect is half-maximal. As a reminder, the Kd is a measure of binding affinity in units of concentration. A higher Kd goes with lower affinity.
